This assay addresses T1, choline kinase (CK) [EC 2.7.1.32] (Saccharomyces cerevisiae, UniProt P20485).
T1 sequence (P20485 2-582): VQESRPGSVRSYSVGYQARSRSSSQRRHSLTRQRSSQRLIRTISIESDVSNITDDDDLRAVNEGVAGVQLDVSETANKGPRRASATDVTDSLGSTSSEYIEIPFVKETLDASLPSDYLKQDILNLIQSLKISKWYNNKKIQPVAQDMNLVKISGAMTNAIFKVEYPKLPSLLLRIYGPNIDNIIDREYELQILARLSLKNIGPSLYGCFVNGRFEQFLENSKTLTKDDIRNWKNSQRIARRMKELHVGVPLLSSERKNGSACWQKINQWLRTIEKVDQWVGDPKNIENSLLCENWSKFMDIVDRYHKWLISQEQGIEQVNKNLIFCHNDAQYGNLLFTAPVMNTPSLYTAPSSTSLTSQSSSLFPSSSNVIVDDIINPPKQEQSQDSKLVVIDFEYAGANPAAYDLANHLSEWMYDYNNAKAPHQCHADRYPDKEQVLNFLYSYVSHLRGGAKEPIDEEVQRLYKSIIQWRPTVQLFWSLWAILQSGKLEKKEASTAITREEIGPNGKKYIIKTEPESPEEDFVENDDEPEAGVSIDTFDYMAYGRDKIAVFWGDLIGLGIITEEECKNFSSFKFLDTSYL
As to the kind of experiment: 1H NMR. The assay is classed as biochemical.

Turning to `CN1CC[C@H](c2c(O)cc(O)c3c(=O)cc(-c4ccccc4Cl)oc23)[C@H](O)C1` [flavopiridol], the IC50 was less than 0.5 µM.

These data come from PMC3201722 (NMR in biomedicine, 2011).
